Reference: paper PMC4119598 (Journal of natural products, 2013)

Experiments:
[1] = tested on: P. berghei LS parasites; experiment: Immunofluorescence analysis; type: cell-based, Plasmodium berghei; conditions: 10 μM, 48 h post-infection
[2] = target: MtFabI (Mycobacterium tuberculosis, UniProt P9WGR1); experiment: FabI enzyme inhibition assay MtFabI; type: biochemical, M. tuberculosis
[3] = tested on: fabp10a:DsRed2 zebrafish larvae; experiment: In vivo hepatotoxicity in fabp10a:DsRed2 zebrafish larvae; parameters: species or system zebrafish (Brachydanio rerio); conditions: for liver phenotype (Figure 3): 6 dpf after 3 days of exposure at MTC (60.2 μM of 1, 15.5 μM of 2, 0.3 μM of 4)
[4] = tested on: BS of Plasmodium; conditions: read-out: BS IC50 (reported); cited from earlier work

MtFabI, sequence (P9WGR1 whole entry, looked up): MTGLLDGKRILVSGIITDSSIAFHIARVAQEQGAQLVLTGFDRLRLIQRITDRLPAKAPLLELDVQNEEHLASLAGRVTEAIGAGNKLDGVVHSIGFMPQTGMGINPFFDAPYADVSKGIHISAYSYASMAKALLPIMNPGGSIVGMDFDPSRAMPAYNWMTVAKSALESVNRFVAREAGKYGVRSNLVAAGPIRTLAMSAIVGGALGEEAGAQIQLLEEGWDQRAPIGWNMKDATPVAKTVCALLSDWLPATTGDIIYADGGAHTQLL

Row | SMILES | effect on size of LS parasites (IFA) [1] | IC50 [2] [µM] | liver phenotype (Figure 3) [3] | hepatotoxicity in zebrafish larvae ([3]; highest concentrations tested, up to and including MTC) | IC50 [4] [nM]
1 | COC(=O)/C(=C1/OC(=O)C(c2ccccc2)=C1O)c1ccccc1 [compound 2, vulpic acid] | decrease in the size of parasites | > 200 | enlarged liver | – | –
2 | CC(=O)C1=C(O)C=C2Oc3c(C(C)=O)c(O)c(C)c(O)c3[C@@]2(C)C1=O [compound 4, (+)-usnic acid] | decrease in the size of parasites | – | liver with normal shape and size | no hepatotoxicity was observed | –
3 | COc1cc(NC(C)CCCN)c2ncccc2c1 (stereo not drawn) [primaquine] | – | – | – | – | 1400 to 3300
4 | COc1cc(C)c(C(=O)Oc2cc(C)c(C(=O)O)c(O)c2)c(O)c1 [compound 1, evernic acid] | no effect | > 200 | reduced liver size | – | –
5 | COc1cc(C(=O)O)c2c(c1C)OC(=O)c1c(C)cc(O)c(C=O)c1O2 [compound 3, psoromic acid] | no effect | > 200 | – | – | –
